Results published in patent US20130337564A1, “Treatment of Pluripotent Cells” (Janssen Biotech, Inc., priority 2012, published 2013).

Tests used:
Format in all cases: cell-based
[1] = test system: HNF-3beta expression in human embryonic stem cells (H9 line); assay: High content screening assay: HNF-3beta protein expression (differentiation); conditions: for HNF-3b Expression Fold over Wnt 3a/AA control: total intensity normalised to Wnt 3a/AA control
Protocol: (§1) Maintenance of human embryonic stem cells (H9 line) was conducted as described in Example 1. Colonies of cells were maintained in an undifferentiated, pluripotent state with passage on average every four days. Passage was performed by exposing cell cultures to a solution of collagenase (1 mg/ml; Sigma-Aldrich) for 10 to 30 minutes at 37° C. followed by gentle scraping with a pipette tip to recover cell clusters. Clusters were allowed to sediment by gravity, followed by washing to remove residual collagenase. Cell clusters were split at a 1:3 ratio for routine maintenance culture or a 1:1 ratio for immediate assay. The human embryonic stem cell lines used were maintained at passage numbers less than passage 50 and routinely evaluated for normal karyotypic phenotype and absence of mycoplasma contamination.
(§2) Cell clusters used in the assay were evenly resuspended in normal culture medium and plated onto MATRIGEL-coated 96-well Packard VIEWPLATES (PerkinElmer) in volumes of […]. MEF conditioned medium supplemented with 8 ng/ml bFGF was used for initial plating and recovery. Daily feeding was conducted by aspirating spent culture medium from each well and replacing with an equal volume of fresh medium. Plates were maintained at 37° C., 5% CO2 in a humidified box throughout the duration of assay.
(§3) Screening was conducted using test compounds from a proprietary library of small molecules selected for their ability to inhibit GSK-3B enzyme activity. Compounds from this library were made available as 1 mM stocks, in a 96-well plate format in 50 mM HEPES, 30% DMSO. Screening compounds were tested in triplicate or duplicate sets. Primary screening assays were initiated by aspirating culture medium from each well followed by three washes in PBS to remove residual growth factors and serum. Test volumes of 80 to 100 μl per well were added back containing DMEM:F12 base medium (Invitrogen) supplemented with 0.5% FCS (HyClone) and 100 ng/ml activin A (R&D Biosystems) plus 10 μM test compound. Positive control wells contained the same base medium, substituting 10-20 ng/ml Wnt3a (R&D Biosystems) for the test compound. Negative control wells contained base medium with 0.5% FCS and activin A alone (AA only) or alternatively, 0.5% FCS without activin A or Wnt3a (no treatment). Wells were aspirated and fed again with identical solutions on day 2 of assay. On days 3 and 4, all assay wells were aspirated and converted to DMEM:F12 supplemented with 2% FCS and 100 ng/ml activin A (without test compound or Wnt3a); parallel negative control wells were maintained in DMEM:F12 base medium with 2% FCS and activin A (AA only) or alternatively, 2% FCS without activin A (no treatment).
(§4) At the end of culture, cells in 96-well plates were fixed with 4% paraformaldehyde at room temperature for 20 minutes, washed three times with PBS, and then permeabilized with 0.5% Triton X-100 for 20 minutes at room temperature. Alternatively, cells were fixed with ice cold 70% ethanol overnight at −20° C., washed three times with PBS, and then permeabilized with Triton X-100 for 5 minutes at 4° C. After fixing and permeabilizing, cells were washed again three times with PBS and then blocked with 4% chicken serum (Invitrogen) in PBS for 30 minutes at room temperature. Primary antibodies (goat anti-human Sox17 and goat anti-human HNF-3beta; R&D Systems) were diluted 1:100 in 4% chicken serum and added to cells for one hour at room temperature. Alexa Fluor 488 conjugated secondary antibody (chicken anti-goat IgG; Molecular Probes) was diluted 1:200 in PBS and added after washing the cells three times with PBS. To counterstain nuclei, 5 mM Draq5 (Alexis Biochemicals) was added for five minutes at room temperature. Cells were washed once with PBS and left in […] PBS for imaging.
(§5) Cells were imaged using an IN Cell Analyzer 1000 (GE Healthcare) utilizing the 51008bs dichroic for cells stained with Draq5 and Alexa Fluor 488. […]

[2] = test system: cells expressing pluripotency markers derived from human embryonic stem cells; assay: MTS viability (toxicity) assay of cells expressing pluripotency markers; set-up: Raw data (duplicate), first replicate / Average: unit not given here; conditions: for Raw data (duplicate), first replicate / Raw data (duplicate), second replicate: MTS viability assay raw reading; for Raw data (duplicate), first replicate: replicate 1; for Raw data (duplicate), second replicate: replicate 2; for Average: average of duplicate MTS raw readings; for % Control / viability at 10 µM: viability of cells expressing pluripotency markers, relative to control; for viability at 10 µM: Homo sapiens, Embryonic stem cell
Protocol: Derivation and maintenance of cells expressing pluripotency makers was conducted as has been described in Example 2. Cells were grown in DMEM:F12 supplemented with 2% FCS (Invitrogen), 100 ng/ml Activin A, 20 ng/ml Wnt-3a, and 50 ng/ml IGF (R&D Biosystems). Cells were seeded at a density of 10,000 cells/cm^2 on Falcon polystyrene flasks and grown in monolayer culture at 37° C., 5% CO2, low oxygen. After reaching 60-70% confluence, cells were passed by washing the monolayer with PBS and incubating with TrypLE (Invitrogen) for 3-5 minutes to allow detachment and single cell dispersal.
Screening was conducted using test compounds from a proprietary library of small molecules selected for their ability to inhibit GSK-3B enzyme activity. Compounds from this library were made available as 1 mM stocks, in a 96-well plate format in 50 mM HEPES, 30% DMSO. For assay, cells expressing pluripotency markers were washed, counted, and plated in normal culture medium at a seeding density of 20,000 cells per well in 96-well clear-bottom, dark-well plates (Costar). This seeding density was previously determined to yield optimal monolayer formation in overnight culture. On the following day, culture medium was removed, cell monolayers were rinsed three times with PBS, and test compounds were added to the wells in 80 μl aliquots, each diluted into assay medium at a final assay concentration of 10 μM. On day 2 of the assay, medium was removed from each well and replaced with a fresh aliquot of test compounds diluted into assay medium. Assay medium on days 1 and 2 of culture consisted of DMEM:F12 supplemented with 0.5% FCS and 100 ng/ml Activin A. On days 3 and 4 of culture, medium was removed from each well and replaced with DMEM:F12 supplemented with 2% FCS and 100 ng/ml Activin A (no test compound). On day 4 of assay, 15 μl of MTS (Promega) was added to each well and plates were incubated at 37° C. for 1.5 to 4 hours prior to reading optical density at 490 nm on a SpectraMax (Molecular Devices) instrument. Statistical measures consisting of mean, standard deviation, and coefficient of variation were calculated for each duplicate set. Toxicity was calculated for each test well relative to a positive control (wells treated with Activin A and Wnt3a on days 1 and 2 of culture).
A larger proportion of the compounds have minimal or no measurable toxicity in this cell-based assay.
A small panel of select compounds was repeat tested over a narrow dose titration range, again using cells expressing pluripotency markers in a similar assay as described above.

[3] = test system: human embryonic stem cells (H9 line); assay: High content screening assay: cell number (proliferative response); conditions: for fold induction at 10 µM: Homo sapiens, Embryonic stem cell, read-out: Proliferative Response, Fold over Wnt 3a/AA control
Protocol: as §1, §2, §3, §4, §5

[4] = test system: Sox17 expression in human embryonic stem cells (H9 line); assay: High content screening assay: Sox17 protein expression (differentiation); conditions: for SOX17 Expression, Fold over Wnt 3a/AA control / fold induction at 10 µM: 10 μM test compound with 100 ng/ml activin A on days 1-2, H9, total intensity by IN Cell Analyzer, strong and moderate hits; for SOX-17 Expression Fold over Wnt 3a/AA control: total intensity normalised to Wnt 3a/AA control; for fold induction at 10 µM: Homo sapiens, Embryonic stem cell, read-out: SOX17 Expression, Fold over Wnt 3a/AA control
Protocol: as §1, §2, §3, §4, §5

[5] = 10 μM test compound with 100 ng/ml activin A on days 1-2, H9, total intensity by IN Cell Analyzer, strong and moderate hits
[6] = 10 μM test compound with 100 ng/ml activin A on days 1-2, H9, total cell number by IN Cell Analyzer, strong and moderate hits
[7] = cell number in the wells analysed for HNF-3b expression
[8] = cell number in the wells analysed for HNF-3b expression, normalised to Wnt 3a/AA control
[9] = cell number in the wells analysed for SOX-17 expression
[10] = cell number in the wells analysed for SOX-17 expression, normalised to Wnt 3a/AA control

## O=C1NC(=O)C2=C1c1cn(c3ncccc13)CCOCCOCCOCCOCCn1cc2c2cccnc21 [Compound 6, 10,11,13,14,16,17,19,20,22,23-Decahydro-1H-9,4:24,29-di(metheno)dipyrido[2,3-n:3′,2′-t]pyrrolo[3,4-q][1,4,7,10,13,22]tetraoxadiazacyclotetracosine-1,3(2H)-dione]
[1]; [5]
  HNF3β Expression, Fold over Wnt 3a/AA control: 1.3832 Fold over Wnt 3a/AA control
[1]
  HNF-3b Expression Total Intensity: 635655000
  HNF-3b Expression Fold over Wnt 3a/AA control: 1.3832 fold
[2]
  Raw data (duplicate), first replicate: 0.706
  Raw data (duplicate), second replicate: 0.672
  Average: 0.689
  % Control: 83.9%
[3]; [6]
  Proliferative Response Fold over Wnt 3a/AA control: 1.9264 Fold over Wnt 3a/AA control
[3]; [7]
  Proliferative Response Total cells: 9728
[3]; [8]
  Proliferative Response Fold over Wnt 3a/AA control: 1.926 fold
[3]; [9]
  Proliferative Response Total cells: 9964.5
[3]; [10]
  Proliferative Response Fold over Wnt 3a/AA control: 1.25 fold
[4]
  SOX17 Expression, Fold over Wnt 3a/AA control: 0.9706 Fold over Wnt 3a/AA control
  SOX-17 Expression Total Intensity: 363855000
  SOX-17 Expression Fold over Wnt 3a/AA control: 0.9706 fold

## CN(C)CCCn1nc(C2=C(c3cn(-c4cccc5ccccc45)c4ccccc34)C(=O)NC2=O)c2ccccc21 [Compound 8]
[1]; Homo sapiens, Embryonic stem cell, 10 μM test compound with 100 ng/ml activin A on days 1-2, H9, total intensity by IN Cell Analyzer, strong and moderate hits, read-out: HNF3β Expression, Fold over Wnt 3a/AA control
  fold induction at 10 µM: 0.743
[1]
  HNF-3b Expression Total Intensity: 341360000
[2]
  viability at 10 µM: 5.2%
  Raw data (duplicate), first replicate: 0.165
  Raw data (duplicate), second replicate: 0.154
  Average: 0.159
[3]; [6]
  fold induction at 10 µM: 1.01
[3]; [7]
  Proliferative Response Total cells: 5096
[3]; [9]
  Proliferative Response Total cells: 5706.5
[4]
  fold induction at 10 µM: 0.853
  SOX-17 Expression Total Intensity: 319930000

## COCCN1CCOCCn2cc(c3ccccc32)C2=C(C(=O)NC2=O)c2nn(c3ccccc23)CCOCC1 [Compound 10, 11-(2-Methoxyethyl)-6,7,10,11,12,13,15,16-octahydro-9H,23H-5,26-(azeno)-17,22-(metheno)dibenzo[k,q]pyrrolo[3,4-n][1,7,4,10,19]dioxatriazacyclohenicosine-23,25(24H)-dione]
[1]; [5]
  HNF3β Expression, Fold over Wnt 3a/AA control: 0.6803 Fold over Wnt 3a/AA control
[1]
  HNF-3b Expression Total Intensity: 312605000
  HNF-3b Expression Fold over Wnt 3a/AA control: 0.6803 fold
[2]
  Raw data (duplicate), first replicate: 0.601
  Raw data (duplicate), second replicate: 0.620
  Average: 0.611
  % Control: 72.2%
[3]; [6]
  Proliferative Response Fold over Wnt 3a/AA control: 0.8926 Fold over Wnt 3a/AA control
[3]; [7]
  Proliferative Response Total cells: 4507
[3]; [8]
  Proliferative Response Fold over Wnt 3a/AA control: 0.8926 fold
[3]; [9]
  Proliferative Response Total cells: 4645.5
[3]; [10]
  Proliferative Response Fold over Wnt 3a/AA control: 0.5829 fold
[4]
  SOX17 Expression, Fold over Wnt 3a/AA control: 0.6864 Fold over Wnt 3a/AA control
  SOX-17 Expression Total Intensity: 257295000
  SOX-17 Expression Fold over Wnt 3a/AA control: 0.6864 fold

## O=C1CCCCn2cc(c3cccnc32)C2=C(C(=O)NC2=O)c2cn(c3ncccc23)CCCC1 [Compound 11, 8,9,11,12,13,14-Hexahydro-6H,21H-5,24:15,20-di(metheno)dipyrido[2,3-b:3′,2′-h]pyrrolo[3,4-e][1,10]diazacyclononadecine-10,21,23(7H,22H)-trione]
[1]; [5]
  HNF3β Expression, Fold over Wnt 3a/AA control: 0.5866 Fold over Wnt 3a/AA control
[1]
  HNF-3b Expression Total Intensity: 269570000
  HNF-3b Expression Fold over Wnt 3a/AA control: 0.5866 fold
[2]
  Raw data (duplicate), first replicate: 0.743
  Raw data (duplicate), second replicate: 0.638
  Average: 0.691
  % Control: 84.1%
[3]; [6]
  Proliferative Response Fold over Wnt 3a/AA control: 0.6025 Fold over Wnt 3a/AA control
[3]; [7]
  Proliferative Response Total cells: 3043
[3]; [8]
  Proliferative Response Fold over Wnt 3a/AA control: 0.6025 fold
[3]; [9]
  Proliferative Response Total cells: 2892.5
[3]; [10]
  Proliferative Response Fold over Wnt 3a/AA control: 0.363 fold
[4]
  SOX17 Expression, Fold over Wnt 3a/AA control: 0.5686 Fold over Wnt 3a/AA control
  SOX-17 Expression Total Intensity: 213165000
  SOX-17 Expression Fold over Wnt 3a/AA control: 0.5686 fold

## CN(C)CCCn1cc(C2=C(c3ccccc3Cl)C(=O)NC2=O)c2cccnc21 [Compound 12, 3-(2-Chlorophenyl)-4-{1-[3-(dimethylamino)propyl]-1H-pyrrolo[2,3-b]pyridin-3-yl}-1H-pyrrole-2,5-dione]
[1]
  HNF-3b Expression Total Intensity: 209795000
[2]
  viability at 10 µM: 4.8%
  Raw data (duplicate), first replicate: 0.148
  Raw data (duplicate), second replicate: 0.152
  Average: 0.150
[3]; [7]
  Proliferative Response Total cells: 2410
[3]; [9]
  Proliferative Response Total cells: 2460.5
[4]
  SOX-17 Expression Total Intensity: 203350000

## O=C1NC(=O)C(c2nn(CCCO)c3ccccc23)=C1c1cn(-c2ccc3ccccc3c2)c2ccccc12 [Compound 13]
[1]; [5]
  HNF3β Expression, Fold over Wnt 3a/AA control: 0.7104 Fold over Wnt 3a/AA control
[1]
  HNF-3b Expression Total Intensity: 326475000
[2]
  viability at 10 µM: 92.6%
  Raw data (duplicate), first replicate: 0.767
  Raw data (duplicate), second replicate: 0.789
  Average: 0.778
[3]; [6]
  fold induction at 10 µM: 0.902
[3]; [7]
  Proliferative Response Total cells: 4556
[3]; [9]
  Proliferative Response Total cells: 4783
[4]
  fold induction at 10 µM: 0.817
  SOX-17 Expression Total Intensity: 306085000
